Data taken from patent US10195311B2, “Local delivery of drugs from self assembled coatings” (Interface Biologics, Inc., priority 2009, dated 2019).

Key:
Type in all cases: physicochemical
[1] = Drug shielding on Nylon 12 film, PTX release in porcine whole blood
Method: (§1) Compounds 1, 7, and 14 (200 mg/mL) were dissolved in THF. PTX was added to each solution to make a 25 mg/mL solution. Nylon 12 film sheets were cut 1×1 cm size, blend solution was drop cast on the film sheet, dried in a 50° C. flow oven for 1 day. PTX alone was prepared the same way and used as the control. PBS pH 7.4 was pre-warmed to 37° C. Test articles and control articles were incubated in media (4 mL) at 37° C. for 10, 30, 60 and 120 minutes. At the end of each time point, media was exchanged and at the end of the study, the films were stripped with organic solvent, centrifuged, the supernatant collected, and solvent dried overnight at 60° C. The assessment of the drug shielding effect was analyzed by RP-HPLC with benzonitrile as the internal standard. 10 minute PTX release in PBS (ng/mL): Compound 1: 107.6, Compound 7: 79.7, Compound 14: 15.4, PTX alone: 651. The assessment of oligofluoro adhesion on film surface was done by NMR. A calibration curve for each compound was generated by NMR. Stripped coating was re-suspended in CDCl3 (1 mL) and NMR was performed. Quantity of remaining material was back calculated from NMR integration area. Percent remaining material after 120 minute incubation in PBS: Compound 1: 82.1, Compound 7: 85.5. Similar assessment of drug shielding on films was done with porcine whole blood. […]

[2] = Drug shielding effect on Nylon 12 film, PTX release in PBS; details: PBS pH 7.4, 37° C.
Method: as §1

[3] = Oligofluoro as solubilizing agent, drug release from coated nylon films in water; details: drug at 4 wt %, nylon film, water 24 hours
Method: Coating was made on nylon film by drop casting method. Control films with drug coated only was also prepared in a same manner. Coated nylon films were incubated in water for 24 hours to measure drug release.

CC(=O)O[C@H]1C(=O)[C@@]2(C)[C@H]([C@H](OC(=O)c3ccccc3)[C@]3(O)C[C@H](OC(=O)[C@H](O)[C@@H](NC(=O)c4ccccc4)c4ccccc4)C(C)=C1C3(C)C)[C@]1(OC(C)=O)CO[C@@H]1C[C@@H]2O [PTX, paclitaxel]
10 minute PTX release in blood [1]: 75.6%
10 minute PTX release in PBS [2]: 651 ng/mL
Percentage drug released in water [3]: 11%
